In patent publication US4477444A, “Antracycline glycosides, pharmaceutical compositions and method of use” (priority 1981, dated 1984):

How the values were obtained:
Hela cells = assay: Activity on Hela cells cloning efficiency in vitro, treatment for 24 hours; format: cell-based; settings: for % of controls (Hela cells cloning efficiency): 24 hours; for cytotoxicity relative to daunorubicin and doxorubicin: Hela cells cloning efficiency in vitro
Gross leukemia = assay: Activity against i.v. inoculated Gross leukemia in mice, i.v. treatment on day 1 after tumor inoculation; format: in vivo
Protocol: (§1) Compound XOO-0148 was also tested on the i.v. inoculated Gross leukemia. Mice were treated i.v. on day 1.
(§2) Activity against Gross leukemia of XOO-0148
(§3) Treatment i.v. on day 1 after tumor inoculation
(§4) ^(a) T/C % = median survival time of treated mice/median survival tim

[1] = as above; format: in vivo; settings: mouse, in vivo, iv; i.v. day 1, Gross leukemia mice; read-out: maximal tolerated dose
Protocol: as §1, §2, §3, §4

[2] = Activity against P388 ascitic leukemia in mice, i.p. treatment on day 1 after tumor inoculation; format: in vivo; settings: mouse, in vivo, ip; for MTD: i.p. day 1, P388 leukemia mice, read-out: maximal tolerated dose
Text: (§5) Activity against P388 ascitic leukemia of XOO-0148 and
(§6) Treatment i.p. on day 1 after tumor inoculation
as §4

P388 leukemia = assay: as above; format: in vivo; settings: for antitumor activity (overall conclusion): conclusion from all studies; for potency relative to the corresponding parent compounds / toxicity relative to the corresponding parent compounds: i.p. day 1, P388 leukemia mice
Text: as §5, §6, §4

[3] = dose 12.5 (dose unit not given)

COc1cccc2c1C(=O)c1c(O)c3c(c(O)c1C2=O)C[C@@](O)(C(C)=O)C[C@@H]3O[C@H]1C[C@H](N)[C@H](O)[C@H](C)O1 [Daunorubicin, daunorubicin, reference compound]
% of controls (Hela cells cloning efficiency) (Hela cells; dose 6.2 (dose unit not given)): 90,48% | % of controls (Hela cells cloning efficiency) (Hela cells; [3]): 44,19% | T/C % (median survival time of treated mice/median survival time of controls x100) (Gross leukemia; 4.6 mg/kg i.v. day 1): 180% | Toxicity Death (Gross leukemia; 4.6 mg/kg i.v. day 1): 0/10 | T/C % (median survival time of treated mice/median survival time of controls x100) (Gross leukemia; 6 mg/kg i.v. day 1): 250% | Toxicity Death (Gross leukemia; 6 mg/kg i.v. day 1): 0/10 | T/C % (median survival time of treated mice/median survival time of controls x100) (Gross leukemia; 7.8 mg/kg i.v. day 1): 250% | Toxicity Death (Gross leukemia; 7.8 mg/kg i.v. day 1): 3/10 | MTD [1]: 6 mg/kg | MTD [2]: 2.9 mg/kg | T/C % (median survival time of treated mice/median survival time of controls x100) (P388 leukemia; 2.9 mg/kg i.p. day 1): 155% | Toxicity Death (P388 leukemia; 2.9 mg/kg i.p. day 1): 0/10 | T/C % (median survival time of treated mice/median survival time of controls x100) (P388 leukemia; 4.4 mg/kg i.p. day 1): 160% | Toxicity Death (P388 leukemia; 4.4 mg/kg i.p. day 1): 2/10 | T/C % (median survival time of treated mice/median survival time of controls x100) (P388 leukemia; 6.6 mg/kg i.p. day 1): 150% | Toxicity Death (P388 leukemia; 6.6 mg/kg i.p. day 1): 5/10

COc1cccc2c1C(=O)c1c(O)c3c(c(O)c1C2=O)C[C@@](O)(C(=O)CO)C[C@@H]3O[C@H]1C[C@H](N)[C@H](O)[C@H](C)O1 [Doxorubicin, doxorubicin, reference compound]
% of controls (Hela cells cloning efficiency) (Hela cells; [3]): 63,93% | % of controls (Hela cells cloning efficiency) (Hela cells; dose 25 (dose unit not given)): 26,22% | MTD [2]: 10 mg/kg | T/C % (median survival time of treated mice/median survival time of controls x100) (P388 leukemia; 4.4 mg/kg i.p. day 1): 245% | Toxicity Death (P388 leukemia; 4.4 mg/kg i.p. day 1): 0/10 | T/C % (median survival time of treated mice/median survival time of controls x100) (P388 leukemia; 6.6 mg/kg i.p. day 1): 255% | Toxicity Death (P388 leukemia; 6.6 mg/kg i.p. day 1): 0/10 | T/C % (median survival time of treated mice/median survival time of controls x100) (P388 leukemia; 10 mg/kg i.p. day 1): 345% | Toxicity Death (P388 leukemia; 10 mg/kg i.p. day 1): 0/10

COc1cccc2c1C(=O)c1c(O)c3c(c(O)c1C2=O)C[C@@](O)(C(C)=O)C[C@@H]3O[C@H]1C[C@@H](N)C[C@H](C)O1 [XOO-0148, 4'-deoxy-3'-epi-daunorubicin]
cytotoxicity relative to daunorubicin and doxorubicin (Hela cells): less cytotoxic than daunorubicin and doxorubicin | % of controls (Hela cells cloning efficiency) (Hela cells; dose 1.5 (dose unit not given)): 89% | % of controls (Hela cells cloning efficiency) (Hela cells; dose 3.1 (dose unit not given)): 100% | % of controls (Hela cells cloning efficiency) (Hela cells; dose 6.2 (dose unit not given)): 98% | % of controls (Hela cells cloning efficiency) (Hela cells; [3]): 111% | % of controls (Hela cells cloning efficiency) (Hela cells; dose 25 (dose unit not given)): 74,95% | % of controls (Hela cells cloning efficiency) (Hela cells; dose 50 (dose unit not given)): 86% | % of controls (Hela cells cloning efficiency) (Hela cells; dose 100 (dose unit not given)): 10% | T/C % (median survival time of treated mice/median survival time of controls x100) (Gross leukemia; 22.5 mg/kg i.v. day 1): 240% | Toxicity Death (Gross leukemia; 22.5 mg/kg i.v. day 1): 0/10 | antitumor activity relative to daunorubicin (Gross leukemia; 22.5 mg/kg i.v. vs daunorubicin at 6 mg/kg): about as active as daunorubicin | T/C % (median survival time of treated mice/median survival time of controls x100) (Gross leukemia; 33.7 mg/kg i.v. day 1): 150% | Toxicity Death (Gross leukemia; 33.7 mg/kg i.v. day 1): 6/10 | T/C % (median survival time of treated mice/median survival time of controls x100) (Gross leukemia; 50 mg/kg i.v. day 1): 120% | Toxicity Death (Gross leukemia; 50 mg/kg i.v. day 1): 10/10 | toxicity relative to daunorubicin (Gross leukemia; i.v. day 1, Gross leukemia mice): less toxic than daunorubicin | MTD [1]: 22.5 mg/kg | T/C % (median survival time of treated mice/median survival time of controls x100) (P388 leukemia; 5.1 mg/kg i.p. day 1): 110% | Toxicity Death (P388 leukemia; 5.1 mg/kg i.p. day 1): 0/10 | T/C % (median survival time of treated mice/median survival time of controls x100) (P388 leukemia; 9.2 mg/kg i.p. day 1): 120% | Toxicity Death (P388 leukemia; 9.2 mg/kg i.p. day 1): 0/10 | T/C % (median survival time of treated mice/median survival time of controls x100) (P388 leukemia; 16.6 mg/kg i.p. day 1): 130% | Toxicity Death (P388 leukemia; 16.6 mg/kg i.p. day 1): 0/10 | toxicity at the maximal dose tested (P388 leukemia; 30 mg/kg i.p.): not toxic | T/C % (median survival time of treated mice/median survival time of controls x100) (P388 leukemia; 30 mg/kg i.p. day 1): 145% | Toxicity Death (P388 leukemia; 30 mg/kg i.p. day 1): 0/10 | antitumor activity relative to daunorubicin (P388 leukemia; 30 mg/kg i.p. vs daunorubicin at 2.9 mg/kg): about as active as daunorubicin | antitumor activity (overall conclusion) (P388 leukemia): remarkable antitumor activity | potency relative to the corresponding parent compounds (P388 leukemia): less potent than the corresponding parent compounds | toxicity relative to the corresponding parent compounds (P388 leukemia): less toxic

COc1cccc2c1C(=O)c1c(O)c3c(c(O)c1C2=O)C[C@@](O)(C(=O)CO)C[C@@H]3O[C@H]1C[C@@H](N)C[C@H](C)O1 [XOO-0155, 4'-deoxy-3'-epi-doxorubicin]
cytotoxicity relative to daunorubicin and doxorubicin (Hela cells): less cytotoxic than daunorubicin and doxorubicin | % of controls (Hela cells cloning efficiency) (Hela cells; dose 100 (dose unit not given)): 12,5% | mortality ([2]; 22.5 mg/kg i.p. day 1, read-out: Toxicity Death): 10% | MTD [2]: 22.5 mg/kg | T/C % (median survival time of treated mice/median survival time of controls x100) (P388 leukemia; 15 mg/kg i.p. day 1): 195% | Toxicity Death (P388 leukemia; 15 mg/kg i.p. day 1): 0/10 | T/C % (median survival time of treated mice/median survival time of controls x100) (P388 leukemia; 22.5 mg/kg i.p. day 1): 235% | antitumor effect relative to doxorubicin (P388 leukemia; 22.5 mg/kg i.p. vs doxorubicin at 10 mg/kg): lower than that observed after treatment with doxorubicin | T/C % (median survival time of treated mice/median survival time of controls x100) (P388 leukemia; 33.7 mg/kg i.p. day 1): 260% | Toxicity Death (P388 leukemia; 33.7 mg/kg i.p. day 1): 4/10 | T/C % (median survival time of treated mice/median survival time of controls x100) (P388 leukemia; 50 mg/kg i.p. day 1): 60% | Toxicity Death (P388 leukemia; 50 mg/kg i.p. day 1): 8/10 | antitumor activity (overall conclusion) (P388 leukemia): remarkable antitumor activity | potency relative to the corresponding parent compounds (P388 leukemia): less potent than the corresponding parent compounds | toxicity relative to the corresponding parent compounds (P388 leukemia): less toxic | antitumor effect (P388 leukemia; maximal tolerated dose 22.5 mg/kg i.p.): remarkable antitumor effect
